The text below walks through data of PMC12291119, “In Vitro Selection of Cyclized, Glycosylated Peptide Antigens That Tightly Bind HIV High Mannose Patch Antibodies” (ACS Central Science, 2025).

Ends that are not written are not given here.

Assay [1] addresses PGT122. Put plainly: Bead-based radiometric binding assay of ribosomally synthesized free peptides. As to conditions: free 3H-histidine-labelled peptide, no click glycosylation; 0, 100, 200, 400 nM antibody, 1 h room temperature, Protein G beads, LSC; Michaelis-Menten fit; preliminary. On the procedure:
The protocol used for cyclization while captured on resin was as follows: To 20 µL of crude translated peptide was added 80 µL of bind buffer with BME (50 mM Tris-HCl, pH 7.8, 300 mM NaCl, 5 mM BME) and 20 µL of HisPur™ Ni-NTA Resin (ThermoScientific). The mixture was tumbled at room temperature for 1 hour. Next, the mixture was spun down at 17,000 ×g, and the supernatant was carefully removed from the loosely-pelleted agarose.
The resin was washed three times with 160 µL of cyclization wash buffer with TCEP (50 mM Tris-HCl, pH 8.0, […]). To the resin was then added 160 µL of free peptide cyclization buffer (50 mM Tris-HCl, pH 8.0, 300 mM NaCl, 0.5 mM TCEP, 3.3 mM m-dibromoxylene, 33% (v/v) MeCN), and the mixture was covered in foil and tumbled at room temperature for 30 minutes. The supernatant was removed and 160 µL of cyclization wash buffer with BME (50 mM Tris-HCl, pH 8.0, 300 mM NaCl, 10 mM BME, 33% (v/v) MeCN) was added. The suspension was tumbled at room temperature for 10 minutes without aluminum foil to quench the reaction. The reaction was spun down, and the supernatant was removed. Next, the resin was resuspended in wash buffer (50 mM Tris-HCl, pH 7.8, 5 mM BME) and transferred to a 0.22 µm Ultrafree-MC Centrifugal Filter (MilliporeSigma). The tube was rinsed with 80 µL of wash buffer, and the rinse was added to the filter. The filter was then spun down at 10,000 ×g for 1 minute. The resin in the filter was washed twice with 160 µL of wash buffer. To elute the peptide, 20 µL 0.2% (v/v) TFA was added to the resin and allowed to sit at room temperature for 2 minutes before spinning down and collecting in a new tube. The elution step was carried out once more, with the eluent collected separately.
4. Radioactive Peptides for Bead-based Radiometric Binding Assay
For binding analysis, translation (50 µL) was carried out in the presence of PDF/MAP and 3H-histidine for radiolabeling. The crude peptides were purified by Ni-NTA agarose and, if the sequence contained two cysteine residues, was cyclized while captured on the Ni-NTA resin. The peptide eluents were combined and dialyzed as follows: To the combined eluents was added a solution of Triton X-100 in water for a final concentration of 0.1%.
Next, the peptides were dialyzed against 0.1% (v/v) Triton X-100 using a Slide-A-Lyzer™ MINI device (0.1 mL capacity, 3.5 kDa MWCO) (Thermo Scientific) at room temperature overnight. The dialyzed peptides were retrieved from the devices. The peptide solutions were concentrated to dryness by speedvac for the click reaction. […]
room temperature. While tumbling, Dynabeads™ Protein G (Invitrogen) were equilibrated with 1X selection buffer as follows: Steps were carried out using a multi-channel pipettor where possible. For each sequence, 8 µL of Protein G bead suspension was transferred to a 0.2 mL PCR tube in a strip. Next, 64 µL (8 bead vol.) of 1X selection buffer was added to the beads. The mixture was resuspended by gently vortexing, spun down briefly, and placed on a magnet for 1 minute. The supernatant was removed, and this wash was repeated two more times. The final supernatant was removed just prior to addition of the incubated peptide/antibody mixture. The mixture was allowed to tumble at room temperature for 30 minutes to capture antibodies and bound peptides. Next, the suspension was briefly spun down, placed on a magnet, and the supernatant was transferred to an individual 0.2 mL PCR tube. To wash the beads, 16 µL of 1X selection buffer was added, gently vortexed, spun down briefly, placed on a magnet for 1 minute, and the wash was transferred to the same PCR tube as the supernatant. This wash step was repeated twice more for a total of three washes, saved altogether with the supernatant as the “unbound” fraction. The beads were then resuspended in 50 µL of denaturing elute buffer. The suspension was heated at 95 °C for 5 minutes to denature […]

Assay [2] has as its target PGT122. Put plainly: Bead-based radiometric binding assay of clones prepared as cDNA/mRNA-glycopeptide fusions. The following applies: 2K CPM per sample, Protein G beads, LSC, preliminary. On the procedure:
antibodies, spun down briefly, placed on a magnet for 1 minute, and the eluent was transferred to an individual 0.2 mL PCR tube. The beads were washed with 50 µL of denaturing elute buffer, and the wash was placed into the same tube as the eluent. The combined eluent and wash represented the “bound” fraction. The beads were resuspended in 50 µL of denaturing elute buffer, vortexed, and directly placed into a vial with liquid scintillation cocktail for radioactivity measurements, though it was not included in calculations of fraction bound. Each of the tubes with the “unbound” and “bound” fractions were placed into vials for LSC. The tube in which the antibody and peptides were incubated were also measured by LSC, but not included in calculations of fraction bound. Fraction bound values for each antibody concentration after background adjustment were input into KaleidaGraph 4.1.1 for curve fitting to a […]
5. Clones Prepared as cDNA/mRNA-glycopeptide Fusions
Selected clones were also prepared as cDNA/mRNA-glycopeptide fusions for binding analysis. RNA (450-1000 pmol) was photo-crosslinked as described in Section IV.A.2 but with 10 µM transcribed RNA and 15 µM XL-PSO in 1X XL Buffer for annealing, and dilution to 100 µL for irradiation at 365 nm. XL-RNA was then purified by ethanol precipitation and 5% denaturing urea-PAGE with electroelution. Purified XL-RNA was translated in the presence of PDF/MAP and 3H-histidine for radiolabeling. Crude translation reactions were captured on Pierce™ Streptavidin UltraLink™ Resin (Thermo Scientific), subjected to reverse transcription, and cyclized as described for selection. Fusions were then washed and photo-eluted with 1X selection buffer instead of 0.2% (v/v) […]. […]
reverse transcription in preparation for photo-elution. Note: 2U3 was also cyclized despite having only one cysteine residue to better mimic its structure during selection. Fusions were then passed through 0.22 µm Ultrafree-MC Centrifugal Filters (MilliporeSigma), buffer exchanged by ethanol precipitation, and subjected to click reaction (5 µL) with Man9(GlcNAc)2-azide as described in Section II.A.8. Binding assays were performed analogously as with […]
as free peptides and cDNA/mRNA-glycopeptide fusions.
Name Click KD Ratio (No click : Click) KD Ratio (No click : Click) […]
a 2U3 was cyclized as a fusion but not as a free peptide.

Assay [3] concerns HIV pseudovirus panel. As to conditions: ref number not given, cited from earlier work. From the text:
We have sought to mimic HMP epitopes without using either the entire Env protein, which contains a plethora of “distracting” epitopes that easily elicit off-target antibodies; − or short glycopeptides directly derived from the Env sequence, which may not sufficiently recapitulate the HMP structure without the conformational support of the remaining Env protein. Aiming to design glycostructures that better mimic the glycan presentation in the HMP, we have pioneered various techniques for the directed evolution of DNA, , RNA, F-RNA, or peptide-supported , glycan clusters.

The mark [4] stands for this setting: cDNA/mRNA-glycopeptide fusion, click-glycosylated with Man9(GlcNAc)2-azide.
The mark [5] stands for this setting: cDNA/mRNA-peptide fusion, no click glycosylation.
The mark [6] stands for this setting: diverse/representative HIV pseudovirus panel.

“AYVISFSIDQPDLDRPNIIRISIGDIRSAKCMKLDTINFAYRDDSSEVCYEK (also: sidechain bridge or staple (positions not given here)) [2B7c, ribosomally synthesized PGT122 selection clone, cyclized]”: the Kd – broadly, the equilibrium constant for the complex coming apart – is 29.8 nM in assay [1], 143 nM in assay [2] (setting [4]) and 66.2 nM in assay [2] (setting [5]).

Substance “AHSLFNFQVRLKQLPLDANGAVIGDIRIAECMNHTYTPLTFYIYSNHPTDIQ [GB1, ribosomally synthesized gl-PGT121 selection clone]” returned a Kd in assay [1] of 181 nM.

Consider “AQYIDWEIDINQVPNQMNLSKPTWKSDITINKVKWSFYININQASNENTDNI [2U6, ribosomally synthesized PGT122 selection clone]”, for which the figures for the Kd in assay [1], in assay [2] (setting [4]) and in assay [2] (setting [5]) were 166 nM, 173 nM and 96.7 nM, respectively.

Turning to “AKTRTPMNLSGKSNIRYFFTIDNSTMFEDLFMRFPRSKEYHIELEEFKDLIR [2U7]”, the Kd in assay [1] is 1430 nM; in assay [2] (setting [4]), 139 nM; in assay [2] (setting [5]) it was 300 nM.

Regarding “AFIAYYFDLSQPNLHSPNFTLKIGDIREAQCMLTCDSAKPNPRVVPILALLI (also: sidechain bridge or staple (positions not given here)) [2B3c, ribosomally synthesized PGT122 selection clone, cyclized]”, the Kd in assay [1] is 4490 nM; in assay [2] (setting [4]), 140 nM; in assay [2] (setting [5]), 99.7 nM.

Regarding “AYPVYLRLPIGDIRIASCMFGDEPNTWTRDELNDYFYTESYNPQPITITFKC (also: sidechain bridge or staple (positions not given here)) [2B2c, ribosomally synthesized PGT122 selection clone, cyclized]”, the Kd in assay [1] was 1650 nM; in assay [2] (setting [4]) it was 116 nM; in assay [2] (setting [5]), 89 nM.

In turn, “ANPRIIFFELSIRNNSLKLLRWHDTQGIFHDSMTELSQHAELPRFKFHSNAA [GU1, ribosomally synthesized gl-PGT121 selection clone]” displayed a Kd in assay [1] of 156 nM.

Consider “ANPSFSVQFIVDLIGPNVMRITLSNKPFATICPITEGESHISKRFNFQLTIS [2U3c, ribosomally synthesized PGT122 selection clone; cyclized as a fusion but not as a free peptide]”, for which the Kd in assay [2] (setting [4]) turned out to be 449 nM; in assay [2] (setting [5]) it was 281 nM.

“ANNFICIRNIGDIRSARCMNVSAGRYAPYREFYFDITYDDFNKNVNIVITPV (also: sidechain bridge or staple (positions not given here)) [2B8c, ribosomally synthesized PGT122 selection clone, cyclized]”: the Kd in assay [2] (setting [4]) was determined as 108 nM; in assay [2] (setting [5]), 176 nM.

In the case of “AYSIHFVCDINETPTNTSKAIFSIKCDITTPESTTRQLMITKHYHFPPTGTR (also: sidechain bridge or staple (positions not given here)) [2U8c, ribosomally synthesized PGT122 selection clone, cyclized]”, the Kd in assay [2] (setting [4]) is 48.4 nM; in assay [2] (setting [5]), 173 nM.

Turning to “ATLNIFSNFSIEPDSFYEIVLPIGDIRIAPCMSSFNRNGSTNNCYHFEINLF (also: sidechain bridge or staple (positions not given here)) [2B5c, ribosomally synthesized PGT122 selection clone, cyclized]”, the figures for the Kd in assay [1], in assay [2] (setting [4]) and in assay [2] (setting [5]) were 212 nM, 85.9 nM and 314 nM, respectively.

On to “PGT128: broad and very potent HIV bnAb binding the High Mannose Patch”, for which, in assay [3] (setting [6]), the “breadth (fraction of HIV pseudovirus panel neutralized)” value is recorded as 72% and the “median IC50” value is 0.02 µg/mL. Moreover, the “potency (EC50)” value in assay [3] (neutralization potency) is 0.02 µg/mL.

“AKTKTYLIRFHLDILPNDNLRSQKIRLIFGDKATVKGMITFLNDSELEWNFE [2U1, ribosomally synthesized PGT122 selection clone, tested with and without click glycosylation]”: the figures for the Kd in assay [2] (setting [4]) and in assay [2] (setting [5]) were 29.8 nM and 82.5 nM, respectively.

“ALNLYQIVEFTIDESNDIVQLQIGDIRTADCMSLNKECYNIIFFSWDNHGKN (also: sidechain bridge or staple (positions not given here)) [2B4c, ribosomally synthesized PGT122 selection clone, cyclized]”: the Kd in assay [1] came to 158 nM; in assay [2] (setting [4]) it was 155 nM; in assay [2] (setting [5]), 44.4 nM.
